Drawing on article PMC6044830 (ACS Omega, 2017), this text covers IC50 for 2 compounds.

SMILES strings stand for the structures.

In the assay the target is PDE4D2 (Homo sapiens, UniProt Q08499). As to the kind of experiment: PDE4D2 assay. The format is biochemical. The settings on record: read-out: PDE4D2 (IC50); human recombinant PDE4D2, catalytic domain.
Chain of PDE4D2 (Q08499 381-740): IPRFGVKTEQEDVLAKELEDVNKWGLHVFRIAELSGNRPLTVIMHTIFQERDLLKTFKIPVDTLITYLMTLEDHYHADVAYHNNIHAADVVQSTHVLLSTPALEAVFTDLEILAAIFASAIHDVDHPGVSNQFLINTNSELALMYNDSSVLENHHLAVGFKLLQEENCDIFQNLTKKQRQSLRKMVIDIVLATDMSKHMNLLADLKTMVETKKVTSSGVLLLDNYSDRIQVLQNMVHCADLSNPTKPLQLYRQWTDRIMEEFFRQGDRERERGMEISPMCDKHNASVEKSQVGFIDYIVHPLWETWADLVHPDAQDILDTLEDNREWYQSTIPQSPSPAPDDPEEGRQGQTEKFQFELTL

In the case of `OCc1ccc2c(c1C#Cc1ccc(O)cc1)C(c1ccc(O)cc1)(c1ccc(O)cc1)c1cc(O)ccc1-2` [Compound 3, selaginpulvilin A], the IC50 was 240 ± 40 nM. As for `Cc1ccc(-c2ccc(O)cc2)c(C(=C2C=CC(=O)C=C2)c2ccc(O)cc2)c1C#Cc1ccc(O)cc1` [Compound 8, selaginellin B], the figure is 140 ± 16 nM.

For orientation: IC50 means the midpoint of a concentration-inhibition curve.
